The target of one assay is Phosphodiesterase 3 (Homo sapiens, UniProt Q14432+Q13370). As to the kind of experiment: Inhibitory potency against guinea pig ventricular phosphodiesterase 3. The class given is protein assay, Cavia porcellus. The conditions noted are these: target entry is the homologue from another species.
The target of another assay is Phosphodiesterase 4 (Homo sapiens, UniProt P27815+Q08499+Q07343+Q08493). As to the kind of experiment: Inhibitory potency against guinea pig ventricular phosphodiesterase 4. The class given is protein assay, Cavia porcellus. The conditions noted are these: target entry is the homologue from another species.
Assay [1] concerns Canis familiaris. As to the kind of experiment: Minimum emetic dose in dogs after peroral administration. The class given is functional, Canis lupus familiaris.
The test system of assay [2] is Cavia porcellus. As to the kind of experiment: Inhibition of Eosinophilia after peroral administration at 10 mg/Kg compound in guinea pig. It counts as functional. The settings on record: po.
Assay [3] relates to Cavia porcellus. As to the kind of experiment: Inhibition of histamine induced bronchoconstriction in guinea pig after intravenous administration. It counts as functional.
The subject of assay [4] is Canis familiaris. The experiment in a line: Minimum emetic dose in dogs after intravenous administration. The class given is functional, Canis lupus familiaris.

By IC50 is commonly meant the concentration needed to halve the response being measured. Read a low IC50 as inhibition by little substance. The term inhibition in vivo denotes how much of the control response was suppressed. Low values mean a response near the control, high ones a response far below the control. As a reminder, the ED50 is the dose at which the effect has come halfway, by size or by number of responders. Read a low ED50 as greater potency.

Turning to `CCCCn1nc2c3ccccc3n(-c3ccccc3)cc-2c1=O`, the IC50 against Phosphodiesterase 3 was 68 µM; against Phosphodiesterase 4 it was 18 µM.

For the molecule `CC(C)(C)n1nc2c3ccccc3n(Cc3cccs3)cc-2c1=O`, the IC50 at Phosphodiesterase 3 was over 20 µM; at Phosphodiesterase 4, 0.8 µM.

In the case of `CCCCn1[nH]c2c(cnc3ccccc32)c1=O`, the IC50 came to 136 µM against Phosphodiesterase 3 and 90 µM on Phosphodiesterase 4.

On to `O=c1c2cn(Cc3ccccc3)c3ccccc3c-2nn1Cc1ccccc1`, for which the IC50 on Phosphodiesterase 3 amounted to 25 µM; against Phosphodiesterase 4, 7 µM.

Take `O=c1c2cn(Cc3ccccc3)c3ccccc3c-2nn1C1CC2CCC1C2` (configuration not stated): the IC50 was over 20 µM on Phosphodiesterase 3 and 1.4 µM on Phosphodiesterase 4.

On to `CCCCn1nc2c3ccccc3n(Cc3cccc([N+](=O)[O-])c3)cc-2c1=O`, for which the results for the IC50 on Phosphodiesterase 3 and on Phosphodiesterase 4 were over 20 µM and 11 µM, respectively.

`O=c1c2cn(Cc3ccccc3)c3ccccc3c-2nn1C1CCCC1`: the IC50 turned out to be 26 µM against Phosphodiesterase 3 and 0.7 µM against Phosphodiesterase 4.

As for `CCn1nc2c3ccccc3n(Cc3ccccc3)cc-2c1=O`, the IC50 was 10 µM against Phosphodiesterase 3 and 3 µM against Phosphodiesterase 4.

`CCCCn1nc2c3ccccc3n(Cc3cccs3)cc-2c1=O`: the Dose in the assay with Canis familiaris [1] was over 10 mg/kg. This molecule also returned an inhibition in vivo at 10 mg/kg in the assay on Cavia porcellus [2] of 56%. Moreover, the ED50 with Cavia porcellus [3] was determined as 0.037 mg/kg. Moreover, the IC50 was over 20 µM at Phosphodiesterase 3 and 2.7 µM against Phosphodiesterase 4.

Take `CCCCn1nc2c3ccccc3n(CC3CCCCC3)cc-2c1=O`: in the assay on Canis familiaris [4], the Dose was over 1 mg/kg. For the same molecule, in the assay on Cavia porcellus [2], the inhibition in vivo at 10 mg/kg was 60%. The ED50 in the assay on Cavia porcellus [3] was over 0.1 mg/kg. Further, the values for the IC50 at Phosphodiesterase 3 and at Phosphodiesterase 4 were 111 µM and 0.7 µM, respectively.

`CCCCn1nc2c3ccccc3n(Cc3ccccc3)cc-2c1=O` showed a Dose in the assay on Canis familiaris [4] of over 3 mg/kg. For the same molecule, in the assay with Cavia porcellus [2], the inhibition in vivo at 10 mg/kg is 52%. This molecule registered an ED50 in the assay on Cavia porcellus [3] of over 0.1 mg/kg. For the same molecule, the 50% inhibitory concentration (IC50) at Phosphodiesterase 3 turned out to be 31 µM; on Phosphodiesterase 4, 2.1 µM.

On to `CCCCn1nc2c3ccccc3n(Cc3cccc(N)c3)cc-2c1=O`, for which the half-inhibitory concentration (IC50) on Phosphodiesterase 3 is over 200 µM; against Phosphodiesterase 4 it was 12 µM.

With `CC(C)(C)n1nc2c3ccccc3n(Cc3ccccc3)cc-2c1=O`, the Dose with Canis familiaris [1] is over 10 mg/kg. Also, the inhibition in vivo at 10 mg/kg with Cavia porcellus [2] stood at 51%. The IC50 is over 100 µM on Phosphodiesterase 3 and 2.1 µM at Phosphodiesterase 4.

In the case of `CC(C)n1nc2c3ccccc3n(Cc3ccccc3)cc-2c1=O`, the half-inhibitory concentration (IC50) on Phosphodiesterase 3 is 86 µM; against Phosphodiesterase 4, 1.2 µM.

As to `CCCCn1nc2c3ccccc3n(CCc3ccccc3)cc-2c1=O`, the IC50 was over 200 µM at Phosphodiesterase 3 and 160 µM at Phosphodiesterase 4.

Turning to `O=c1c2cn(Cc3ccccc3)c3ccccc3c-2nn1CC1CCC1`, the concentration for half-maximal inhibition (IC50) is over 200 µM against Phosphodiesterase 3 and 0.8 µM against Phosphodiesterase 4.

As for `O=c1c2cn(Cc3ccccc3)c3ccccc3c-2nn1CC1CCCCC1`, the IC50 worked out at 102 µM against Phosphodiesterase 3 and 24 µM against Phosphodiesterase 4.

In the case of `O=c1c2cn(CC3CCCCC3)c3ccccc3c-2nn1C1CCCC1`, the half-inhibitory concentration (IC50) against Phosphodiesterase 3 was over 20 µM; against Phosphodiesterase 4 it was 0.4 µM.

In the assay with Canis familiaris [1], `CCCCn1nc2c3ccccc3n(Cc3cccc(Cl)c3)cc-2c1=O` returned a Dose of over 10 mg/kg. Besides, testing at 10 mg/kg in the assay on Cavia porcellus [2] gave an inhibition in vivo of 53%. Further, it took a dose of 0.062 mg/kg to reach the 50% effect level in the assay on Cavia porcellus [3] (ED50). Besides, the figures for the IC50 at Phosphodiesterase 3 and against Phosphodiesterase 4 were over 20 µM and 2.3 µM, respectively.

`CCn1c(=O)c2ccccc2n(-c2cccc([N+](=O)[O-])c2)c1=O` [NITRAQUAZONE]: the IC50 was over 200 µM on Phosphodiesterase 3 and 0.05 µM at Phosphodiesterase 4.

Consider `CC(C)(C)n1nc2c3ccccc3n(CC3CCCCC3)cc-2c1=O`, for which the 50% inhibitory concentration (IC50) against Phosphodiesterase 3 was over 20 µM; against Phosphodiesterase 4 it was 0.5 µM.

For `O=c1c2cn(Cc3cccs3)c3ccccc3c-2nn1C1CCCC1`, in the assay with Canis familiaris [4], the Dose is over 3 mg/kg. Besides, in the assay on Cavia porcellus [2], the inhibition in vivo at 10 mg/kg came out at 62%. This molecule also registered a 50% effective dose (ED50) with Cavia porcellus [3] of 0.083 mg/kg. Moreover, the IC50 is over 20 µM at Phosphodiesterase 3 and 0.4 µM on Phosphodiesterase 4.

In the assay with Canis familiaris [4], `COc1ccc(C2CNC(=O)C2)cc1OC1CCCC1` (configuration not stated) [ROLIPRAM] displayed a Dose of 0.03 mg/kg. 10 mg/kg produced 58% inhibition in vivo in the assay on Cavia porcellus [2]. Also, it took a dose of 0.004 mg/kg to reach the 50% effect level in the assay on Cavia porcellus [3] (ED50).

Turning to `Cn1nc2c3ccccc3n(Cc3ccccc3)cc-2c1=O`, the IC50 against Phosphodiesterase 3 turned out to be 67 µM; on Phosphodiesterase 4 it was 14 µM.

Turning to `O=c1c2cn(Cc3ccccc3)c3ccccc3c-2nn1CCc1ccccc1`, the results for the IC50 at Phosphodiesterase 3 and on Phosphodiesterase 4 were over 100 µM and 10 µM, respectively.

Turning to `O=c1[nH]nc2c3ccccc3n(Cc3ccccc3)cc1-2`, the IC50 was found to be 48 µM at Phosphodiesterase 3 and 37 µM against Phosphodiesterase 4.

For `CCCCCn1nc2c3ccccc3n(Cc3ccccc3)cc-2c1=O`, the IC50 on Phosphodiesterase 3 was 120 µM; against Phosphodiesterase 4 it was 6.4 µM.

The record behind these values is ChEMBL document CHEMBL1133487, “Synthesis and biological evaluation of 2,5-dihydropyrazol” (Bioorg Med Chem Lett, 2000).
